From patent US10350210B2, “EGFR and ALK dual inhibitor” (PRECEDO PHARMACEUTICALS CO., LTD, priority 2015, dated 2019)

Columns and labels:
PC-9 = assay: Effect on cell apoptosis (Western Blot, PARP and Caspase 3 cleavage), PC-9; assay type: cell-based, human; conditions: PC-9 (EGFR delE746_A750), 24 hours
From the text: In order to confirm whether the death of cells is through apoptosis or necrosis after administration of drugs, non-small cell lung cancer cell A549 (expressing wild-type EGFR gene), non-small cell lung cancer cell line H1975 (expressing EGFR L858R/T790M double mutant gene), non-small cell lung cancer cell line H3255 (expressing EGFR L858R mutant gene), non-small cell lung cancer cell line H3122 (expressing ALK gene) cell line, and non-small cell lung cancer cell line PC-9 (expressing EGFR delE746_A750 mutant gene) were tested for effect of Compound 1 on cleavage of poly ADP-ribose polymerase PARP which is a DNA repair enzyme and Caspase 3, which were closely related to cell apoptosis. […] Western Blot was used to detect the effect of various concentrations of drugs at various time points on cleavage of poly ADP-ribose polymerase PARP which is a DNA repair enzyme and Caspase 3.

A549 = assay: Effect on cell cycle (PI staining, flow cytometer), A549; assay type: cell-based, human; conditions: A549 (wild-type EGFR), 24 hours and 48 hours
From the text: In order to study which growth phase the cell was halted after administration of the drugs, five cell lines including non-small cell lung cancer cell line A549 (expressing wild-type EGFR gene), non-small cell lung cancer cell line H1975 (expressing EGFR L858R/T790M double mutant gene), non-small cell Lung cancer cell line PC-9 (expressing EGFR delE746_A750 mutant gene), non-small cell lung cancer cell line H3255 (expressing EGFR L858R mutant gene) and non-small cell lung cancer cell NCI-H3122 (expressing ALK gene) were tested for effect of Compound 1 on cell cycle distribution. Two cell lines including non-small cell lung cancer cell NCI-H3122 (expressing ALK gene) and non-small cell lung cancer cell H1975 (expressing EGFR L858R/T790M double mutant gene) were tested for effect of Compound 10 on cell cycle distribution. […]

NCI-H3122 = assay: Growth of cancer cells (Cell Titer-Glo viability), NCI-H3122; assay type: cell-based; conditions: Homo sapiens; NCI-H3122 (expressing ALK gene), 72 hrs; read-out: GI50

GI50 (NCI-H3122) [nM]	Structure (SMILES)	concentration at which evident cleavage of PARP and Caspase 3 could be observed (PC-9) [µM]	effect on cell cycle (A549)
–	C=CC(=O)Nc1cc(Nc2ncc(Cl)c(Nc3ccccc3S(=O)(=O)C(C)C)n2)c(OC)cc1N1CCN(CC)CC1 [Compound 1, N-(5-(5-chloro-4-(2-(isopropylsulfonyl)phenylamino)pyrimidin-2-ylamino)-2-(4-ethylpiperazin-1-yl)-4-methoxyphenyl)acrylamide]	0.3	certain effect
< 0.3	C=CC(=O)Nc1cc(Nc2ncc(Cl)c(Nc3ccccc3S(=O)(=O)C(C)C)n2)c(OC)cc1N1CCCN(C)CC1 [Compound 10, N-(5-(5-chloro-4-(2-(isopropylsulfonyl)phenylamino)pyrimidin-2-ylamino)-4-methoxy-2-(4-methyl-1,4-homopiperazin-1-yl)phenyl)acrylamide]	–	–
